{"source": "paper doi:10.1101/2025.03.13.643086", "about": "“Granzyme-targeting quenched activity-based probes for assessing tumor response to immunotherapy” (bioRxiv, 2025)", "key": {"[1]": {"system": "GzmB activity in 4T1 tumors", "assay_type": "in vivo, mouse", "protocol": "Figure 5. In vivo imaging of GzmB activity in mouse tumor models. (A) Schematic illustration of the timeline of immunotherapy and real-time NIRF-imaging. (B) Measurement of tumor growth comparing immunotherapy (ICB combination)-treated vs. untreated mice. Data points are shown as mean with SD. (C) Whole animal 2D fluorescence images of immunotherapy-treated mice obtained after 2, 4, 8 and 24 h post-injection at Ex/Em: 640/680 nm. […] (D) Quantification of in vivo NIRF signals in the tumors. […] (F) Quantification of ex vivo NIRF signals in the organs (normalized to spleen). […] (G) Immunoblotting analysis of GzmB expression in tumor homogenates. Briefly, pieces of tumors were transferred to a flask containing 1 mL RIPA lysis buffer on ice and constantly grinded for 2 min. Homogenates were collected by centrifugation and 20 μg of proteins were analyzed by SDS-PAGE and immunoblotting. (H) Representative confocal microscopy images of tumor sections stained with DAPI (blue) and CD8α (green)/GzmB (yellow) antibodies and Cy5 (red) detection. (I) Fraction (%) of CD8+ cells in the tumors analyzed by flow cytometry. (J) Mean fluorescence intensity (MFI) of Cy5 signals determined by flow cytometry after dissociated tumors were treated with 10 (5 μM) for 2 h at 37 °C.\n(§1) 3-5 mice/group. For all studies, mice were monitored by daily observation and serial tumor measurements and body weights.\nMice were treated with 20 mg/kg BEC i.v., 10 mg/kg anti-PD1 i.p., 5 mg/kg anti-CTLA4 i.p. or a combination of 10 mg/kg anti-PD-1 and 5 mg/kg anti-CTLA4. All the treatments were administered into living mice bearing 4T1 tumor every three days for three times (q3dx3). Dosing was administered at 0.01 ml/g body weight. On day 9 post-treatment, the mice were injected with 2 nmol/g GzmB qABP i.v., followed by fluorescence imaging at 2, 4, 8, and 24 h. Following the last imaging time point, mice were euthanized, and tissues were collected for ex vivo imaging.\nE. In vivo and ex vivo fluorescence imaging (FLI)\nAll fluorescence imaging (FLI) were performed using Xenogen IVIS Spectrum (Revvity Health Sciences, Inc., Hopkinton, Massachusetts), which was previously owned by PerkinElmer. Prior to in vivo or ex vivo FLI, quality control of the IVIS system was performed with XFM-2X fluorescent phantom mouse (Revvity Health Sciences, Inc., Hopkinton, Massachusetts). The total radiant efficiency of AF680 phantom was 1.44 x 109 ± 5.7 x 107 at 40% threshold for the entire study.\nBoth in vivo and ex vivo FLI of mice including dye phantom was performed with Ex/Em: 640/680 nm. The wavelength difference between excitation and emission was large enough to prevent signal contamination by mixing. The maximum exposure time was fixed at 120 seconds to avoid background noise. In vivo imaging used 8 binning, 2 f-stop, and 1.5 cm sample height, whereas ex vivo imaging used 8 binning, 2–4 f-stop, and 0.5 cm sample height. The quantified data are presented as radiant efficiency or normalized radiant efficiency by area. […]\nFixed/Permeabilized […]\ncells were resuspended 100 µL 1x intracellular staining perm wash buffer and incubated with FITC-conjugated CD8 antibody (BioLegend #100706) at 0 °C for 1 h. After centrifugation, cell pellets were washed with 1x intracellular staining perm wash buffer (twice) and resuspended in the appropriate amount of cell staining buffer (BioLegend # 420201) and analyzed with flow […]"}, "[2]": {"system": "GzmB activity in NK-92 cells", "experiment": "Flow cytometry analysis of protein labeling by ABPs in NK-92 and MDA-MB-231 cells", "assay_type": "cell-based, human", "details": "5 μM", "protocol": "Figure 3. GzmB ABPs selectively label active GzmB in cells. (A) Gel-based analysis of GzmB labeling by ABPs in NK-92 cells. 5x10^5 NK-92 cells were incubated with each ABP at varying concentrations for 2 h at 37 °C. After cell lysis, protein samples were analyzed by SDS-PAGE and in-gel fluorescence scanning for Cy5 signal. Expression of GzmB was confirmed by western blotting. (B) Gel-based analysis of GzmB labeling by qABP 10 in different cells. 2x10^6 NK-92, MDA-MB-231, Jurkat, and HEK cells were incubated with compound 10 (5 μM) at 37 °C for 2 h. After cell lysis, protein samples were analyzed by SDS-PAGE and in-gel fluorescence scanning for Cy5 signal. […] Protein samples were analyzed by SDS-PAGE and in-gel fluorescence scanning for Cy5 signal. […] Top: Histogram; Bottom: Mean fluorescence intensity (MFI) in MDA-MB-231 cells. […]\nHistogram of flow cytometry data for NK-92 cells incubated with qABP 10. Right: Quantification of mean Cy5 fluorescence intensity. […]\nas §1\nMice were treated with 20 mg/kg BEC i.v., 10 mg/kg anti-PD1 i.p., 5 mg/kg anti-CTLA4 i.p. or a combination of 10 mg/kg anti-PD-1 and 5 mg/kg anti-CTLA4. […] On day 9 post-treatment, the mice were injected with 2 nmol/g GzmB qABP i.v., followed by fluorescence imaging at 2, 4, 8, and 24 h. […]"}}, "data": [{"smiles": "CC[C@H](C)[C@H](NC(=O)CCCCCN1/C(=C/C=C/C=C/C2=[N+](CC)c3ccc(S(=O)(=O)O)cc3C2(C)C)C(C)(C)c2cc(S(=O)(=O)O)ccc21)C(=O)N[C@@H](CCC(=O)O)C(=O)N1CCC[C@H]1C(=O)NC(CS(=O)(=O)O)P(=O)(Oc1ccc(CCNC(=O)C2CCN(S(=O)(=O)c3ccccc3-c3c4ccc(=[N+]5CCc6ccccc65)cc-4oc4cc(N5CCc6ccccc65)ccc34)CC2)cc1)c1ccccc1", "note": "(stereo partly shown) [Compound 10, Cy5-IEPCya^PhP-QSY21]", "values": [{"measurement": "in vivo NIRF signal at 2 h, mouse #61 (brightest)", "setting": "[1]; 12.5 nmol/100 μL i.v., 2 h post-injection, ICB combination-treated mouse", "value": "7.26x10^9 p s^−1 cm^−2 sr^−1"}, {"measurement": "time post-injection of brightest NIRF signal within tumors", "setting": "[1]; 50 nmol i.v., imaged at 2, 4, 8 and 24 h", "value": 2, "unit": "h"}, {"measurement": "tumor-to-background ratio (TBR), ex vivo, normalized to spleen, mouse #57", "setting": "[1]; 50 nmol i.v., organs harvested 24 h post-injection", "value": 15.18}, {"measurement": "in vivo fluorescence signal in tumor at 2 h, mouse #57 (highest)", "setting": "[1]; 50 nmol/100 μL i.v., 2 h post-injection, ICB combination-treated mouse", "value": "4.02x10^10 p s^−1 cm^−2 sr^−1"}, {"measurement": "clearance route of excess probe", "setting": "[1]; second highest signals in bladder (2 h in vivo) and kidneys (24 h ex vivo)", "value": "cleared through the renal pathway"}, {"measurement": "fluorescence intensity in NK-92 cells relative to GzmB non-expressing MDA-MB-231 cells", "setting": "[2]", "value": "approximately 9.1 fold"}, {"measurement": "signal-to-noise (S/N), NK-92 vs MDA-MB-231 cells", "setting": "[2]; 37 °C, 2 h", "value": 9.09}]}]}
